Marks after values point to notes of the source that are not given here.

For the first series the following is noted: pH 2.3.
On to `COC(=O)C(C#N)=C(NCc1ncccn1)c1cccnc1Cl` [Compound 13], for which the “Log P” value is 1.57^[c]; 1.57^[b].
Take `CCOC(=O)C(C#N)=C(NC(C)C(F)(F)F)c1cccnc1OC` (racemic) [Compound 807]: the lipophilicity (Log P) is on record as 3.05.
For the molecule `CCOC(=O)C(C#N)=C(NC(C)C(C)C)c1cccnc1` (centres unmarked) [Compound 1504], the lipophilicity (Log P) is recorded as 2.61.
Still for that read-out and setting: for `COC(=O)C(C#N)=C(NC(C)C(C)C)c1cccnc1Br` (centres unmarked) [Compound 942] the value was 3.02; for `CCOC(=O)C(C#N)=C(Nc1cnc2sccc2c1)c1cccnc1Cl` [Compound 1310], 2.56.
As to `CNC(=O)C(C#N)=C(NC(C)C1CC1)c1cccnc1Cl` (racemic) [Compound 908], the “Log P” value was 2.2^[c]; 2.2^[b].
With `CC(C)C(C)NC(=C(C#N)C(=O)OC1CCC1)c1cccnc1Cl` (centres unmarked) [Compound 1284], the log partition coefficient (Log P) is 3.79^[c]; 3.79^[b].

Staying with this series, now noted: pH 2.7.
`CCOC(=O)C(C#N)=C(Nc1ccc(Cl)cc1)c1cn(C)nc1C(F)F` [Compound 475]: the “Log P” value was 3.23^[a].
In the case of `CCOC(=O)C(C#N)=C(NC(C)C(N)=O)c1nc(SC)ncc1Br` (centres unmarked) [Compound 709], the lipophilicity (Log P) was 2.13^[a].
Turning to `COC(=O)C(C#N)=C(NC(c1ccc(Cl)cc1)C1CC1)c1cccnc1Cl` (centres unmarked) [Compound 381], the log partition coefficient (Log P) is 3.58^[a].
Still for that read-out and setting: the result for `COC(=O)C(C#N)=C(NC(C)C(=O)Nc1ccc2ccccc2c1)c1sc(C)nc1C(F)(F)F` (racemic) [Compound 661] reads 3.69^[a].
The same measure, in the same setting: the result for `CCOC(=O)C(C#N)=C(NC(C)COC)c1ccnc2ccccc12` (centres unmarked) [Compound 1499] reads 2.5^[a]; that for `COC(=O)C(C#N)=C(NC(C(=O)OC)C(C)C)c1sc(C)nc1C(F)(F)F` (racemic) [Compound 666], 3.29^[a].
Turning to `CCOC(=O)C(C#N)=C(NC(C)C(=O)NC)c1ccnc(Cl)c1Cl` (centres unmarked) [Compound 1387], the log partition coefficient (Log P) was 2.1^[a].
Same read-out and setting: the result for `CCOC(=O)C(C#N)=C(NC(C)CF)c1cc(C)oc1C` (centres unmarked) [Compound 745] reads 2.8^[a].
Turning to `CCOC(=O)C(C#N)=C(NC1COC1)c1cn(C)nc1C(F)F` [Compound 1339], the lipophilicity (Log P) is 1.79^[a].
In the case of `CCOC(=O)C(C#N)=C(NC(C)C1CC1)c1sccc1C(F)(F)F` (centres unmarked) [Compound 883], the lipophilicity (Log P) is 3.83^[a].
As for `CCOC(=O)C(C#N)=C(NC(C)C1CC1)c1sccc1Br` (centres unmarked) [Compound 885], the “Log P” value is 3.76^[a].
Take `CCOC(=O)C(C#N)=C(NC(C)C1CC1)c1cn(C)nc1C(C)F` (racemic) [Compound 895]: the “Log P” value was 2.84^[a].
Same read-out and setting: the result for `CCOC(=O)C(C#N)=C(NC(C)(C)C(=O)OC)c1cccnc1Cl` [Compound 1274] reads 2.66^[a]; that for `CCOC(=O)C(C#N)=C(NC(C)C(=O)Nc1ccc2ccccc2c1)c1cn(C)nc1C(F)F` (centres unmarked) [Compound 683], 3.31^[a]; that for `CCOC(=O)C(C#N)=C(NCc1ccccn1)c1ccsc1Br` [Compound 115], 2.53^[a].
With `CCOC(=O)C(C#N)=C(NC(C)C(N)=O)c1cnccc1C(F)(F)F` (centres unmarked) [Compound 727], the “Log P” value is 1.8^[a].
For the molecule `CCOC(=O)C(C#N)=C(NC(C)c1nccs1)c1cn(C)nc1C(C)C` (centres unmarked) [Compound 1214], the log partition coefficient (Log P) was 2.62^[a].
As to `CCOC(=O)C(C#N)=C(NC(C)c1nccs1)c1scnc1Cl` (centres unmarked) [Compound 1463], the “Log P” value was 2.59^[a].
For `CCOC(=O)C(C#N)=C(NC(C)c1ccccc1)c1sccc1Br` (mixture of isomers) [Compound 448], the lipophilicity (Log P) is 4.09^[a].
With `CCOC(=O)C(C#N)=C(NC(C)C(C)C)c1cn(C)nc1C(F)(F)F` (centres unmarked) [Compound 939], the “Log P” value was 3.64^[a].
Turning to `CCOC(=O)C(C#N)=C(NC(C)CCCC(C)C)c1cccnc1Cl` (centres unmarked) [Compound 1187], the “Log P” value is 4.62^[a].
On the same count and under the same terms, the result for `CCOC(=O)C(C#N)=C(Nc1ccccc1SC)c1cn(C)nc1OC` [Compound 507] reads 3.06^[a]; that for `CCOC(=O)C(C#N)=C(NC(C)Cc1ccccc1)c1cccnc1Cl` (centres unmarked) [Compound 1643], 3.5^[a]; that for `CCOC(=O)C(C#N)=C(NC(C)C(C)C)c1ccncc1F` (centres unmarked) [Compound 997], 3.08^[a].
In the case of `CCOC(=O)C(C#N)=C(NC(C)C(C)C)c1sccc1Cl` (centres unmarked) [Compound 951], the “Log P” value was 4.08^[a].
On to `CCOC(=O)C(C#N)=C(NCc1ncccc1Cl)c1cccnc1Cl` [Compound 1413], for which the “Log P” value is 2.77^[a].
Take `CCOC(=O)C(C#N)=C(NC(C)(C)C)c1cn(C)nc1C(F)F` [Compound 1418]: the “Log P” value was 2.66^[a].
For the molecule `CCOC(=O)C(C#N)=C(NC(C)C(=O)NC)c1sc(C)nc1C(F)(F)F` (centres unmarked) [Compound 642], the lipophilicity (Log P) is 2.07^[a].
Regarding `C#CC(C)(C)NC(=C(C#N)C(=O)OCC)c1ccsc1Br` [Compound 1029], the log partition coefficient (Log P) was 3.42^[a].
Regarding `CCOC(=O)C(C#N)=C(NCc1ccccn1)c1sccc1Br` [Compound 99], the “Log P” value was 2.61^[a].
As for `CCOC(=O)C(C#N)=C(NC(C)c1nn(C)c(=O)n1C)c1cc(Cl)ncc1Cl` (racemic) [Compound 255], the lipophilicity (Log P) was 3.76^[a].
For `C=CCCCC(C=C)NC(=C(C#N)C(=O)OCC)c1cn(C)nc1C(F)(F)F` (centres unmarked) [Compound 1021], the “Log P” value is 4.14^[a].
Same read-out and setting: for `CCOC(=O)C(C#N)=C(NC(C)COCc1ccc(C(F)(F)F)cc1)c1cn(C)nc1C(F)F` (centres unmarked) [Compound 1233] the value was 3.99^[a]; for `CCOC(=O)C(C#N)=C(NC(C)CC)c1cccnc1C(F)(F)F` (racemic) [Compound 840], 3.27^[a]; for `CCOC(=O)C(C#N)=C(NCC1(C)COC1)c1cccnc1Cl` [Compound 1429], 2.11^[a].
On the same count and under the same terms, the result for `CCOC(=O)C(C#N)=C(Nc1ccccc1OC(C)C)c1ccsc1Br` [Compound 523] reads 4.46^[a]; that for `CCOC(=O)C(C#N)=C(NC(C)C(=O)NC)c1ccnc(Cl)c1Cl` (centres unmarked) [Compound 730], 2.08^[a]; that for `CCOC(=O)C(C#N)=C(NC(C)CN(C)C)c1conc1C` (centres unmarked) [Compound 594], 0.76^[a].
For `CCOC(=O)C(C#N)=C(NC(C)c1nccs1)c1nsc(Cl)c1Cl` (racemic) [Compound 55], the lipophilicity (Log P) was 3.29^[a].
Turning to `COC(=O)C(C#N)=C(NC(C1CC1)C1CC1)c1cccnc1Cl` [Compound 765], the “Log P” value is 2.85^[a].
On the same count and under the same terms, for `CCOC(=O)C(C#N)=C(NC(C)c1ccccn1)c1cn(C)cc1C(F)(F)F` (racemic) [Compound 270] the value was 2.92^[a].
On to `CC(C)C(C)NC(=C(C#N)C(=O)N1CCSCC1)c1cccnc1Cl` (centres unmarked) [Compound 1507], for which the “Log P” value is 3.27^[a].
With `CCCCCCC(C)NC(=C(C#N)C(=O)OCC)c1c(C)nn(C)c1F` (racemic) [Compound 813], the “Log P” value was 4.51^[a].
Still for that read-out and setting: for `CCOC(=O)C(C#N)=C(NC(C)C(=O)OC)c1sc(C)nc1C(F)(F)F` (centres unmarked) [Compound 680] the value was 2.94^[a].
Still for that read-out and setting: the result for `CC(C)C(C)NC(=C(C#N)C(=O)N(C)C1CC1)c1cccnc1Cl` (centres unmarked) [Compound 1513] reads 3.02^[a]; that for `CCOC(=O)C(C#N)=C(NC(C)c1cscn1)c1ccncc1F` (mixture of isomers) [Compound 301], 2.22^[a].
On to `CCOC(=O)C(C#N)=C(NC(C)c1nccs1)c1ccnc(-c2ccccc2)c1Cl` (centres unmarked) [Compound 1385], for which the log partition coefficient (Log P) is 3.31^[a].
With `CCCCCC(C)NC(=C(C#N)C(=O)OCC)c1cccnc1Cl` (centres unmarked) [Compound 1188], the “Log P” value is 4.26^[a].
Regarding `CCOC(=O)C(C#N)=C(NC(C)C(N)=O)c1sccc1Cl` (centres unmarked) [Compound 644], the “Log P” value is 1.9^[a].
On the same count and under the same terms, the result for `CCOC(=O)C(C#N)=C(NC(C)C(=O)OCc1ccccc1)c1cccnc1Cl` (centres unmarked) [Compound 1539] reads 3.53^[a]; that for `CCOC(=O)C(C#N)=C(NC(C)c1nccs1)c1c(C(F)(F)F)nn(C)c1F` (mixture of isomers) [Compound 308], 3.09^[a]; that for `CCOC(=O)C(C#N)=C(NC(C)CC)c1cnccc1C(F)(F)F` (racemic) [Compound 843], 3.17^[a].
For the molecule `CC#CC(C)NC(=C(C#N)C(=O)OCC)c1cccnc1Cl` (centres unmarked) [Compound 1198], the lipophilicity (Log P) was 3.02^[a].
On to `CCOC(=O)C(C#N)=C(Nc1ccccc1SC)c1c(C)nn(C)c1Cl` [Compound 410], for which the “Log P” value was 3.42^[a].
For the molecule `CCOC(=O)C(C#N)=C(NC(C)[Si](C)(C)C)c1cccnc1Cl` (centres unmarked) [Compound 1522], the log partition coefficient (Log P) is 3.87^[a].
Consider `CCOC(=O)C(C#N)=C(NCc1ncc(C)s1)c1sccc1C(F)(F)F` [Compound 217], for which the log partition coefficient (Log P) was 3.19^[a].
`CCOC(=O)C(C#N)=C(NC(C)CN(C)C)c1nsc(Cl)c1Cl` (racemic) [Compound 588]: the “Log P” value was 1.41^[a].
The same measure, in the same setting: for `CCOC(=O)C(C#N)=C(NC(C)Cc1c[nH]c2ccccc12)c1sccc1C(F)(F)F` (centres unmarked) [Compound 108] the value was 3.94^[a]; for `CCOC(=O)C(C#N)=C(NC(C)c1ccc(Cl)cc1)c1conc1C` (centres unmarked) [Compound 362], 3.62^[a].
Turning to `C=CCOC(=O)C(C#N)=C(NC(C)C(C)C)c1sccc1Br` (centres unmarked) [Compound 962], the “Log P” value is 4.34^[a].
Take `CCCC(C)NC(=C(C#N)C(=O)OC)c1sc(C)nc1C(F)(F)F` (centres unmarked) [Compound 866]: the “Log P” value was 3.61^[a].
With `CCOC(=O)C(C#N)=C(NC1(c2ccccc2)CCC1)c1cccnc1Cl` [Compound 1550], the lipophilicity (Log P) is 3.73^[a].

The series is the same for the next values; noted with them: pH 7.5.
For the molecule `CCCCCC(C)NC(=C(C#N)C(=O)OCC)c1cccnc1Cl` (racemic) [Compound 859], the lipophilicity (Log P) is listed as 4.1.
In the case of `COC(=O)C(C#N)=C(NCc1ncccn1)c1cccnc1Cl` [Compound 13], the “Log P” value was 1.57^[c]; 1.57^[b].
On the same count and under the same terms, the result for `CCOC(=O)C(C#N)=C(NC(C)C(C)C)c1ccc(C)nc1Cl` (centres unmarked) [Compound 950] reads 3.63.
Same read-out and setting: for `CCOC(=O)C(C#N)=C(NC(C)c1nc(C(=O)OCC)cs1)c1cccnc1Cl` (centres unmarked) [Compound 241] the value was 2.7; for `CONC(=O)C(C#N)=C(NC(C)c1nccs1)c1ccc(Cl)nc1Cl` (centres unmarked) [Compound 1459], 1.94; for `CCOC(=O)C(C#N)=C(NC(C)C(F)(F)F)c1cccnc1OC` (racemic) [Compound 807], 3.04.
The same measure, in the same setting: for `CCOC(=O)C(C#N)=C(NC(C)C(C)C)c1cccnc1` (centres unmarked) [Compound 1504] the value was 2.67.
`COC(=O)C(C#N)=C(NC(C)C(C)C)c1cccnc1Br` (centres unmarked) [Compound 942]: the log partition coefficient (Log P) amounted to 2.88.
Turning to `CCOC(=O)C(C#N)=C(Nc1cnc2sccc2c1)c1cccnc1Cl` [Compound 1310], the “Log P” value was 2.49.
Take `CNC(=O)C(C#N)=C(NC(C)C1CC1)c1cccnc1Cl` (racemic) [Compound 908]: the “Log P” value was 2.2^[c]; 2.2^[b].
Consider `CC(C)C(C)NC(=C(C#N)C(=O)OC1CCC1)c1cccnc1Cl` (centres unmarked) [Compound 1284], for which the “Log P” value was 3.79^[c]; 3.79^[b].

These data come from patent publication US8476197B2, “Aminopropenoates as fungicides” (priority 2009, dated 2013).
